Measurements reported in paper PMC3867360, “Membrane Interactions of S100A12 (Calgranulin C)” (PLoS ONE, 2013).

Target: T1, porcine S100A12 (Calgranulin C) (Sus scrofa, UniProt P80310)
T1 construct: pET28a-S100A12 in E. coli BL21(DE3); N-terminal or other His-tag cut with thrombin; non-covalent antiparallel homodimer; apo form in SPR
T1 sequence (P80310 1-92 limits assumed): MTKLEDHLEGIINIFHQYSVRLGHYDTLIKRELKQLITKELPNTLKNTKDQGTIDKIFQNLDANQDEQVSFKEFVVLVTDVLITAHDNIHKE
Experiment: SPR, Biacore X, L1 sensorchip, immobilized LUVs
Type: binding
From the text: SPR, Biacore X, L1 sensorchip, immobilized LUVs on porcine S100A12 (Calgranulin C)

Row | Kd | Compound
1 | 5.9 µM | CCCCCCCCCCCCCCCC(=O)OC[C@H](COP(=O)([O-])OCC[N+](C)(C)C)OC(=O)CCCCCCCCCCCCCCC [DPPC, 1,2-dipalmitoyl-sn-glycero-3-phosphocholine]
2 | 0.63 µM | CCCCCCCCCCCCCCCC(=O)OC[C@H](COP(=O)(O)OCC(O)CO)OC(=O)CCCCCCCCCCCCCCC (some centres unmarked) [DPPG, 1,2-dipalmitoyl-sn-glycero-3-phosphoglycerol]
